Reference: BindingDB's records for doi:10.1021/jm040190e (National Institute On Drug Abuse-Intramural Research Program, 2005)
pIC50: −log10 of the molar value.

Test: Mitogenic stimulation or antagonism of 30 nM quinpirole-stimulated mitogenesis in CHO cells expressing human dopamine D3 receptor

pIC50 | Compound
8.20 | O=C(NCCCCN1CCN(c2cccc(Cl)c2Cl)CC1)c1ccc(-c2ccccn2)cc1 [N-{4-[4-(2,3-Dichloro-phenyl)-piperazin-1-yl]-butyl}-4-pyridin-2-yl-benzamide]
6.76 | O=C(NC/C=C/CN1CCN(c2cccc(Cl)c2Cl)CC1)c1ccc2c(c1)Cc1ccccc1-2 [N-(4-(4-(2,3-dichlorophenyl)piperazin-1-yl)but-2-enyl)-9H-fluorene-2-carboxamide]
7.62 | O=C(NC/C=C/CN1CCN(c2cccc(Cl)c2Cl)CC1)c1ccc(I)cc1 [N-{4-[4-(2,3-Dichloro-phenyl)-piperazin-1-yl]-but-2-enyl}-4-iodo-benzamide]
8.66 | O=C(NC/C=C/CN1CCN(c2cccc(Cl)c2Cl)CC1)c1ccc([N+](=O)[O-])cc1 [N-{(E)-4-[4-(2,3-Dichloro-phenyl)-piperazin-1-yl]-but-2-enyl}-4-nitro-benzamide]
8.32 | COc1ccc(C(=O)NC/C=C/CN2CCN(c3cccc(Cl)c3Cl)CC2)cc1 [N-{4-[4-(2,3-Dichloro-phenyl)-piperazin-1-yl]-but-2-enyl}-4-methoxy-benzamide]
9.00 | O=C(NC/C=C/CN1CCN(c2cccc(Cl)c2Cl)CC1)c1ccc(O)cc1 [N-{4-[4-(2,3-Dichloro-phenyl)-piperazin-1-yl]-but-2-enyl}-4-hydroxy-benzamide]
